Source: ChEMBL document CHEMBL1135875, “Hydrophobic modifications at 1-phosphate of inositol 1,4,5-trisphosphate analogues enhance receptor binding” (Bioorg Med Chem Lett, 2002)

Assays:
[1] = molecular target: T1, Inositol 1,4,5-trisphosphate-gated calcium channel ITPR1 (Homo sapiens, UniProt Q14643); assay: Dissociation constant using IP3-binding domain (IBD) of human Type 1 inositol 1,4,5-trisphosphate receptor
[2] = molecular target: T1, Inositol 1,4,5-trisphosphate-gated calcium channel ITPR1; assay: Affinity towards IP3-binding domain (IBD) of human Type 1 inositol 1,4,5-trisphosphate receptor was determined relative to compound 2

T1 sequence (Q14643 whole entry, the tested form may be a part): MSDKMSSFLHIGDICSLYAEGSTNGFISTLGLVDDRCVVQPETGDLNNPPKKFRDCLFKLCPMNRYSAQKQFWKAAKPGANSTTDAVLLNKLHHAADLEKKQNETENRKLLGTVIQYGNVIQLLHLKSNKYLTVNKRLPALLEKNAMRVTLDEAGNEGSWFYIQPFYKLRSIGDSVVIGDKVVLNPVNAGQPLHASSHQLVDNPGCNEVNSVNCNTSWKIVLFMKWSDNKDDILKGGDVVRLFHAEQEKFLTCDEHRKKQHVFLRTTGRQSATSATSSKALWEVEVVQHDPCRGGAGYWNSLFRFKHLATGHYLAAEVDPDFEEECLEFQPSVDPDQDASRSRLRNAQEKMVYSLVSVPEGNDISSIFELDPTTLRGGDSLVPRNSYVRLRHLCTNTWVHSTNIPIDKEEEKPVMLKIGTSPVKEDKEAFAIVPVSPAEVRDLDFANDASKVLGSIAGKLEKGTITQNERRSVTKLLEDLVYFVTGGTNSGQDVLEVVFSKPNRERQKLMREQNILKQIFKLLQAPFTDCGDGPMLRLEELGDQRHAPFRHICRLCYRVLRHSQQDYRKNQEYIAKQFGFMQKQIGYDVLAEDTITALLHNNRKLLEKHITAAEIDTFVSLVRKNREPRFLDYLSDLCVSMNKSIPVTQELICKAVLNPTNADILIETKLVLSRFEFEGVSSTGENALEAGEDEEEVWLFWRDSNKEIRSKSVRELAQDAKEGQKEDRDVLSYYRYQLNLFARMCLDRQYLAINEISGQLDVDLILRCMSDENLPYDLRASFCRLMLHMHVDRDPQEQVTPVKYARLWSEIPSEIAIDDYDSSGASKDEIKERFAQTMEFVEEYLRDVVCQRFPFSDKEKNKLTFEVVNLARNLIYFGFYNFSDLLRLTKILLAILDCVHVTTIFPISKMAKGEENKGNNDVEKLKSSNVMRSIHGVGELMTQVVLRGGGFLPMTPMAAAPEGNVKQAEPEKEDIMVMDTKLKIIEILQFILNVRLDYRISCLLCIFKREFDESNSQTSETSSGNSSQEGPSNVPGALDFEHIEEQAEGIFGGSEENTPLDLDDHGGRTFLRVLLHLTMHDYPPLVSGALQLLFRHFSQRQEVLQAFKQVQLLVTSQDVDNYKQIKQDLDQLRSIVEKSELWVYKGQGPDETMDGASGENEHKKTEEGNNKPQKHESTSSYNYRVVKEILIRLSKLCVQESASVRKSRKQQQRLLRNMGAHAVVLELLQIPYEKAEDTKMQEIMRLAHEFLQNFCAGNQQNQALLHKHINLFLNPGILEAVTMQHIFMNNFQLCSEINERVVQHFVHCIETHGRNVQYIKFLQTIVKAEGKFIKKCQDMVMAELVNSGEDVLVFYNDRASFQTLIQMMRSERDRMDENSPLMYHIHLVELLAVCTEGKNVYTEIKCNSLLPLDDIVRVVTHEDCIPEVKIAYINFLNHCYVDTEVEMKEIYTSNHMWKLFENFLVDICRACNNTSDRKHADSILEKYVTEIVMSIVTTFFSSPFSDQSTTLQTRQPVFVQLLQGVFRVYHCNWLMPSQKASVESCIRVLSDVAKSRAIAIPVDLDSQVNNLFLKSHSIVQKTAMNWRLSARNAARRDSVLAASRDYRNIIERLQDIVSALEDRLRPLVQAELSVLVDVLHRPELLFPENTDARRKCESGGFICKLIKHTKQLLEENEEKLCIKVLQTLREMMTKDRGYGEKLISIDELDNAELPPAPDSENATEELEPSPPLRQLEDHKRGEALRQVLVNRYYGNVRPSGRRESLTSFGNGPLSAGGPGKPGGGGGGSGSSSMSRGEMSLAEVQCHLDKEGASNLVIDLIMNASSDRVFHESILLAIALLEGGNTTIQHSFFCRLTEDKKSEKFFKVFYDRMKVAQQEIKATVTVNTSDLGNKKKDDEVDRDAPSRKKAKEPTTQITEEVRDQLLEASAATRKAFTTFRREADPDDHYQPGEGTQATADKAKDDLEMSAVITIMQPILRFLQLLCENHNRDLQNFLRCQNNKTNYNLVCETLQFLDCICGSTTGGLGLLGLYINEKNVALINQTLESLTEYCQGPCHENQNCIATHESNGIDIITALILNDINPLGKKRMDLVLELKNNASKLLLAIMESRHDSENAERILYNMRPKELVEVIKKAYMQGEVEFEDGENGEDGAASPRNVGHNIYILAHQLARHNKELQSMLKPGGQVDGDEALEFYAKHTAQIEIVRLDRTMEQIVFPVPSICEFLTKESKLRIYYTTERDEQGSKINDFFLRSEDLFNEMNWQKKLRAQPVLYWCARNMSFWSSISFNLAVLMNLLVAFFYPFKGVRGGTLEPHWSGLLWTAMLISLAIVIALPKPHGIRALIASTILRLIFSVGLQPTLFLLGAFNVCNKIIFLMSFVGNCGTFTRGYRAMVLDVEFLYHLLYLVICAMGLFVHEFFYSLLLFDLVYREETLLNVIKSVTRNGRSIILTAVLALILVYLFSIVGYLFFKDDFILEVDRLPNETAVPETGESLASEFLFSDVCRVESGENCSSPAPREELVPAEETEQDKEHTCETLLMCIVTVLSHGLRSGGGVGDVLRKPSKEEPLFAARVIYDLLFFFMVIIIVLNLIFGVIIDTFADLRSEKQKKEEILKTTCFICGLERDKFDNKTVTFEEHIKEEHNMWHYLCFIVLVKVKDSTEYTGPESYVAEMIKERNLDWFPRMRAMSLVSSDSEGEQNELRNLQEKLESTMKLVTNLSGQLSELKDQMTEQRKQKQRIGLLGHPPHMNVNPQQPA

Compound	Kd [1] [µM]	Relative affinity [2]
NCCCOP(=O)(O)O[C@@H]1[C@H](O)[C@H](O)[C@@H](OP(=O)(O)O)[C@H](OP(=O)(O)O)[C@H]1O	1.5	1
CN(C)c1ccc2c(-c3ccc(C(=O)NCCCOP(=O)(O)O[C@@H]4[C@H](O)[C@H](O)[C@@H](OP(=O)(O)O)[C@H](OP(=O)(O)O)[C@H]4O)cc3C(=O)[O-])c3ccc(=[N+](C)C)cc-3oc2c1	0.62	2.4
CN(C)c1ccc(C(=C2C=CC(=[N+](C)C)C=C2)c2ccc(C(=O)NCCCOP(=O)(O)O[C@@H]3[C@H](O)[C@H](O)[C@@H](OP(=O)(O)O)[C@H](OP(=O)(O)O)[C@H]3O)cc2)cc1	–	950
